In US20260297080A1, “BICYCLIC COMPOUNDS AS CDK INHIBITORS” (BeOne Medicines I GmbH, priority 2022, published 2026):

Tests used:
CDK2/Cyclin E1 = CDK2/Cyclin E1 (Homo sapiens, UniProt P24941); test: CDK2/Cyclin E1 Biochemical Assay (TR-FRET), 0.060 mM ATP; conditions: 0.15 μM Rb (Ser780)-biotin substrate, pH7.0, 60 min preincubation, 120 min reaction, room temperature
Protocol: (§1) CDK2/Cyclin E1 and CDK1/Cyclin B1 Biochemical Assays
(§2) Compounds disclosed herein were tested for inhibition of CDK2/Cyclin E1 or CDK1/Cyclin B1 kinase in an assay based on the time-resolved fluorescence-resonance energy transfer (TR-FRET) methodology. The assay was carried out in 384-well low volume black plates in a reaction mixture containing CDK2/Cyclin E1 or CDK1/Cyclin B1, 0.060 mM ATP for CDK2/Cyclin E1 or 0.015 mM ATP for CDK1/Cyclin B1, 0.15 μM Rb (Ser780)-biotin substrate and 0-10 μM compound in buffer containing 50 mM HEPES pH7.0, 0.02% NaN3, 0.01% BSA, 0.1 mM Orthovanadate, 50 mM MgCl2, 1 mM DTT and 0.005% Tween-20. The kinase was incubated with compound for 60 minutes at room temperature and the reaction was initiated by the addition of ATP and Rb (Ser780)-biotin substrate. After reaction at room temperature for 120 minutes, an equal volume of stop/detection solution was added according to the manufacture's instruction (Cisbio Bioassays). The stop/detection solution contained Streptavidin-XL665 and Anti-pRb (Ser780) mAb-Eu Cryptate in Detection buffer (Cisbio Bioassays). Plates were incubated at room temperature for 60 minutes, and the TR-FRET signals (ex337 nm, em665 nm/620 nm) were recorded on a PHERAstar FSX plate reader (BMG Labtech). The inhibition percentage of CDK2/Cyclin E1 or CDK1/Cyclin B1 kinase activity in presence of increasing concentrations of compounds was calculated based on the ratio of fluorescence at 665 nm to that at 620 nm. The IC50 for each compound was derived from fitting the data to the four-parameter logistic equation by Dotmatics.

CDK1/Cyclin B1 = CDK1/Cyclin B1 (Homo sapiens, UniProt P06493); test: CDK1/Cyclin B1 Biochemical Assay (TR-FRET), 0.015 mM ATP; conditions: 0.15 μM Rb (Ser780)-biotin substrate, pH7.0, 60 min preincubation, 120 min reaction, room temperature
Protocol: as §1, §2

CDK1/Cyclin B1, sequence (P06493 whole entry): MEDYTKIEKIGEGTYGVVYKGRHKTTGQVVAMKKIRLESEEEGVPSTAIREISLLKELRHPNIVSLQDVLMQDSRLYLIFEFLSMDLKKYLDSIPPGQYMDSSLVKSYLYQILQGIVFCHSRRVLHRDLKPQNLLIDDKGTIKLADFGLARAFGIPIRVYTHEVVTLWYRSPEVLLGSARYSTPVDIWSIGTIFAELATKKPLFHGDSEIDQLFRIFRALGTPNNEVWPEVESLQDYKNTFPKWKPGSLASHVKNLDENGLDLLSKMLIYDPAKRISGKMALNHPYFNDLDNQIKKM
CDK1/Cyclin B1, sequence (P14635 whole entry partner): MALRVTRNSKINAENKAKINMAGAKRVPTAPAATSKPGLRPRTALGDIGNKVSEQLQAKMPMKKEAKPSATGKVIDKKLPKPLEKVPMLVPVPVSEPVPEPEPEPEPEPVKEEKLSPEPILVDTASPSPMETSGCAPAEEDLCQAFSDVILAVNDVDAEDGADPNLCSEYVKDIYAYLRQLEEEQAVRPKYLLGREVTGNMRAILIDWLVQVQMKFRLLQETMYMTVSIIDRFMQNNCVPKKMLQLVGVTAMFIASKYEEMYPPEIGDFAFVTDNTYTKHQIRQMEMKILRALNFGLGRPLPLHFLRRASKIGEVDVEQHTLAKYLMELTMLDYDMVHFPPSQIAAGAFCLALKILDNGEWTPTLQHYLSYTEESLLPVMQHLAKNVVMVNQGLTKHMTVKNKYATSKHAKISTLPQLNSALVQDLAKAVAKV

| IC50 (CDK2/Cyclin E1) | IC50 (CDK1/Cyclin B1) | SMILES |
| --- | --- | --- |
| 5.5 nM | 128 nM | CCCNC(=O)O[C@H]1CC[C@@H](c2cc(Nc3cc4c(cc3F)S(=O)(=O)NC4)n[nH]2)C1 (single isomer, unassigned) [Example 42b, cis-3-(3-((6-fluoro-1,1-dioxido-2,3-dihydrobenzo[d]isothiazol-5-yl)amino)-1H-pyrazol-5-yl)cyclopentyl propylcarbamate] |
| 9.7 nM | 760 nM | Cc1nc2c(cc1Nc1cc([C@@H]3CC[C@H](OC(=O)NC(C)C)C3)[nH]n1)CNS2(=O)=O (relative stereo) [Example 396, cis-3-(3-((6-methyl-1,1-dioxido-2,3-dihydroisothiazolo[5,4-b]pyridin-5-yl)amino)-1H-pyrazol-5-yl)cyclopentyl isopropylcarbamate] |
| 6.5 nM | 58 nM | CCCNC(=O)O[C@H]1CC[C@@H](c2cc(Nc3ccc4c(c3)NS(=O)(=O)C4)n[nH]2)C1 (relative stereo) [Example 305, cis-3-(3-((2,2-dioxido-1,3-dihydrobenzo[c]isothiazol-6-yl)amino)-1H-pyrazol-5-yl)cyclopentyl propylcarbamate] |
| 7 nM | 166 nM | CC(C)NC(=O)O[C@H]1CC[C@@H](c2cc(Nc3cnc4c(c3)CNS4(=O)=O)n[nH]2)C1 (relative stereo) [Example 31, cis-3-(3-((1,1-dioxido-2,3-dihydroisothiazolo[5,4-b]pyridin-5-yl)amino)-1H-pyrazol-5-yl)cyclopentyl isopropylcarbamate] |
| 1.8 nM | 98 nM | CC1(NC(=O)O[C@H]2CC[C@@H](c3cc(Nc4ccc5c(c4F)CN(CCO)S5(=O)=O)n[nH]3)C2)CC1 (racemic) [Example 128, cis-3-(3-((4-fluoro-2-(2-hydroxyethyl)-1,1-dioxido-2,3-dihydrobenzo[d]isothiazol-5-yl)amino)-1H-pyrazol-5-yl)cyclopentyl(1-methylcyclopropyl)carbamate] |
| 5 nM | 294 nM | CC1(NC(=O)O[C@H]2CC[C@@H](c3cc(Nc4ccc5c(c4F)CNS5(=O)=O)n[nH]3)C2)COC1 (racemic) [Example 164, cis-3-(3-((4-fluoro-1,1-dioxido-2,3-dihydrobenzo[d]isothiazol-5-yl)amino)-1H-pyrazol-5-yl)cyclopentyl(3-methyloxetan-3-yl)carbamate] |
| 3.8 nM | 92 nM | CCCNC(=O)O[C@H]1CC[C@@H](c2cc(Nc3ccc4c(c3F)C(C)NS4(=O)=O)n[nH]2)C1 (single isomer, unassigned) [Example 53b, cis-3-(3-((4-fluoro-3-methyl-1,1-dioxido-2,3-dihydrobenzo[d]isothiazol-5-yl)amino)-1H-pyrazol-5-yl)cyclopentyl propylcarbamate] |
| 1.2 nM | 46 nM | O=C(NC1CCC(O)CC1)O[C@H]1CC[C@@H](c2cc(Nc3ccc4c(c3F)CNS4(=O)=O)n[nH]2)C1 (single isomer, unassigned) [Example 142, cis-3-(3-((4-fluoro-1,1-dioxido-2,3-dihydrobenzo[d]isothiazol-5-yl)amino)-1H-pyrazol-5-yl)cyclopentyl(4-hydroxycyclohexyl)carbamate] |
| 5.4 nM | 518 nM | CC(C)NC(=O)O[C@H]1CC[C@@H](c2cc(Nc3ccc4c(c3F)CN(C3CC3)S4(=O)=O)n[nH]2)C1 (single isomer, unassigned) [Example 116a, cis-3-(3-((2-cyclopropyl-4-fluoro-1,1-dioxido-2,3-dihydrobenzo[d]isothiazol-5-yl)amino)-1H-pyrazol-5-yl)cyclopentyl isopropylcarbamate] |
| 6.5 nM | 332 nM | COCC(C)NC(=O)O[C@H]1CC[C@@H](c2cc(Nc3ccc4c(c3F)CNS4(=O)=O)n[nH]2)C1 (relative stereo) [Example 161, cis-3-(3-((4-fluoro-1,1-dioxido-2,3-dihydrobenzo[d]isothiazol-5-yl)amino)-1H-pyrazol-5-yl)cyclopentyl(1-methoxypropan-2-yl)carbamate] |
| 10 nM | 249 nM | CC(C)NC(=O)O[C@H]1CC[C@@H](c2cc(Nc3ccc4c(c3F)CS(=O)(=O)N4CC(C)(C)O)n[nH]2)C1 (racemic) [Example 254, cis-3-(3-((4-fluoro-1-(2-hydroxy-2-methylpropyl)-2,2-dioxido-1,3-dihydrobenzo[c]isothiazol-5-yl)amino)-1H-pyrazol-5-yl)cyclopentyl isopropylcarbamate] |
| 3.5 nM | 265 nM | COCC(C)(C)NC(=O)O[C@H]1CC[C@@H](c2cc(Nc3ccc4c(c3F)CN(C3CC3)S4(=O)=O)n[nH]2)C1 (relative stereo) [Example 371, cis-3-(3-((2-cyclopropyl-4-fluoro-1,1-dioxido-2,3-dihydrobenzo[d]isothiazol-5-yl)amino)-1H-pyrazol-5-yl)cyclopentyl(1-methoxy-2-methylpropan-2-yl)carbamate] |
| 1.1 nM | 9.7 nM | COCC(C)(C)NC(=O)O[C@H]1CC[C@@H](c2cc(Nc3ccc4c(c3)CS(=O)(=O)N4)n[nH]2)C1 (relative stereo) [Example 370, cis-3-(3-((2,2-dioxido-1,3-dihydrobenzo[c]isothiazol-5-yl)amino)-1H-pyrazol-5-yl)cyclopentyl(1-methoxy-2-methylpropan-2-yl)carbamate] |
| 1.3 nM | 138 nM | CC1(NC(=O)O[C@H]2CC[C@@H](c3cc(Nc4cc5c(cc4F)S(=O)(=O)NC5)n[nH]3)C2)CC1 (single isomer, unassigned) [Example 44a, cis-3-(3-((6-fluoro-1,1-dioxido-2,3-dihydrobenzo[d]isothiazol-5-yl)amino)-1H-pyrazol-5-yl)cyclopentyl(1-methylcyclopropyl)carbamate] |
| 1.8 nM | 78 nM | O=C(NCCC(F)(F)F)O[C@H]1CC[C@@H](c2cc(Nc3cc4c(cc3F)S(=O)(=O)NC4)n[nH]2)C1 (single isomer, unassigned) [Example 419b] |
| 1.1 nM | 45 nM | COCC(C)(C)NC(=O)O[C@H]1CC[C@@H](c2cc(Nc3ccc4c(c3F)CS(=O)(=O)N4C)n[nH]2)C1 (relative stereo) [Example 377, cis-3-(3-((4-fluoro-1-methyl-2,2-dioxido-1,3-dihydrobenzo[c]isothiazol-5-yl)amino)-1H-pyrazol-5-yl)cyclopentyl(1-methoxy-2-methylpropan-2-yl)carbamate] |
| 64 nM | 1120 nM | CCCNC(=O)O[C@H]1CC[C@@H](c2cc(Nc3cc4c(cc3F)NS(=O)(=O)C4)n[nH]2)C1 (relative stereo) [Example 293, cis-3-(3-((6-fluoro-2,2-dioxido-1,3-dihydrobenzo[c]isothiazol-5-yl)amino)-1H-pyrazol-5-yl)cyclopentyl propylcarbamate] |
| 2.7 nM | 146 nM | CC1(NC(=O)O[C@H]2CC[C@@H](c3cc(Nc4ccc5c(c4F)CN(C4CC4)S5(=O)=O)n[nH]3)C2)CC1 (racemic) [Example 119, cis-3-(3-((2-cyclopropyl-4-fluoro-1,1-dioxido-2,3-dihydrobenzo[d]isothiazol-5-yl)amino)-1H-pyrazol-5-yl)cyclopentyl(1-methylcyclopropyl)carbamate] |
| 18 nM | 75 nM | O=C(NCCC(F)(F)F)O[C@@H]1CC[C@H](c2cc(Nc3ccc4c(c3)CS(=O)(=O)N4)n[nH]2)C1 (relative stereo) [Example 198, cis-3-(3-((2,2-dioxido-1,3-dihydrobenzo[c]isothiazol-5-yl)amino)-1H-pyrazol-5-yl)cyclopentyl(3,3,3-trifluoropropyl)carbamate] |
| 2.5 nM | 194 nM | CC(C)NC(=O)O[C@H]1CC[C@@H](c2cc(Nc3ccc4c(c3F)C(C)NS4(=O)=O)n[nH]2)C1 (single isomer, unassigned) [Example 51a, cis-3-(3-((4-fluoro-3-methyl-1,1-dioxido-2,3-dihydrobenzo[d]isothiazol-5-yl)amino)-1H-pyrazol-5-yl)cyclopentyl isopropylcarbamate] |
| 0.4 nM | 25 nM | CC(C)NC(=O)O[C@H]1CC[C@@H](c2cc(Nc3ccc4c(c3F)CS(=O)(=O)N4)n[nH]2)C1 (racemic) [Example 251, cis-3-(3-((4-fluoro-2,2-dioxido-1,3-dihydrobenzo[c]isothiazol-5-yl)amino)-1H-pyrazol-5-yl)cyclopentyl isopropylcarbamate] |
| 6.2 nM | 264 nM | O=C(NC1CCC1)O[C@@H]1CC[C@H](c2cc(Nc3ccc4c(c3F)CS(=O)(=O)N4)n[nH]2)C1 (single isomer, unassigned) [Example 399a] |
| – | 18 nM | CC(C)NC(=O)O[C@H]1CC[C@@H](c2cc(Nc3ccc4c(c3F)CS(=O)(=O)C4)n[nH]2)C1 (relative stereo) [Example 317, cis-3-(3-((4-fluoro-2,2-dioxido-1,3-dihydrobenzo[c]thiophen-5-yl)amino)-1H-pyrazol-5-yl)cyclopentyl isopropylcarbamate] |
